The values that follow come from patent publication US20190092769A1, “[…] AND T[…] ACTING UPON THE […] AND CENTRAL NERVOUS SYSTEMS” (CENTRO DE INVESTIGACION Y […] LOS MEDICAMENTOS (CIDEM), priority 2009, published 2019).

The subject of assay [1] is cerebellar granules damaged with glutamate. In words: Cytoprotective effect in cerebellar granules exposed to glutamate. In kind it is cell-based.
Text: For neuro-protective in vitro evaluation, we used PC12 cell cultures exposed to damage from glutamate and hydrogen peroxide, as well as cerebellar granules damaged with glutamate.
Diazepam (DZP), derivative of commercial 1,4-benzodiazepine.
The subject of assay [2] is mitochondrial permeability transition (MPT). Briefly: Mitochondrial permeability transition in isolated mitochondria (absorbance decrease at 540 nm). In kind it is biochemical. The note with it: inducers Ca2+ 50 μM and phosphate (Pi).
Text: Mitochondrial permeability transition can be estimated by absorbance decrease of a mitochondrial suspension at 540 nm.
For assay [3], the system named is mitochondrial membrane potential. In words: Dissipation of mitochondrial membrane potential (safranine O fluorescence). In kind it is biochemical. The note with it: Ca2+ 50 μM and phosphate (Pi) 2 mM. The procedure: This membrane potential can be fluorimetrically estimated by using safranine O. This marker is captured in the suspension by energized mitochondria (in the presence of substrates of the electronic transportation chain, such as succinate) provoking a fluorescence decrease. When the MPT process takes place, safranine is again released to the environment, thus increasing, fluorescence. […] In a dosage dependent manner, JM-20 inhibits potential loss, being the maximum inhibitory level at 15 μM (orange line).
Safranine (10 μM) is captured by energized mitochondria (succinate 5 mM rotenone 2.5 μM). In the presence of MPT inducers such as Ca^2+ and Pi, an immediate loss of mitochondrial membrane potential takes place (black line) that is prevented by the classic MPT inhibitor, CsA (red line) and by JM-20 (green, blue and orange lines) in a dosage dependent manner. The excitation/emission wave length used for safranine are 495/586 nm, respectively. A mitoprotective behavior similar to the one reported in the previous Table was found in the other molecules evaluated.

The target of assay [4] is T1, mitochondrial uniporter calcium excipient (Homo sapiens, UniProt Q8NE86).
T1 construct: This experiment is also carried out with isolated mitochondria (0.5 mg/ml); from tissue
T1 sequence (Q8NE86 51-351): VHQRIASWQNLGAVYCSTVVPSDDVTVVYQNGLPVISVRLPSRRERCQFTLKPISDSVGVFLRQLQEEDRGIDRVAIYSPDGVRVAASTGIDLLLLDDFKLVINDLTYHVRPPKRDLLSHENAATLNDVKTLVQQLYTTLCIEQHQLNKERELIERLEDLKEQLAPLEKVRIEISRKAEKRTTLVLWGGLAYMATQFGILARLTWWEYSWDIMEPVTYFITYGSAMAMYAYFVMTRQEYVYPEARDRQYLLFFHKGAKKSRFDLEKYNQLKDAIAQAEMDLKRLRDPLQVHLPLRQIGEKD
T1 sequence (Q9H4I9 48-107 partner limits assumed): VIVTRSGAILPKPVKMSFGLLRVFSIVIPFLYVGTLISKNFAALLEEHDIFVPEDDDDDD
In words: Mitochondrial calcium capture in isolated mitochondria (Calcium Green 5N). In kind it is biochemical.
Experimental: This experiment is also carried out with isolated mitochondria (0.5 mg/ml) energized with succinate 5 mM+rotenone 2.5 μM and the presence of Calcium Green 5N fluorescent marker which increases fluorescence in the presence of calcium. […] The excitation/emission wave lengths used for Calcium Green 5N are 506/531 nm, respectively.

Assay [5] addresses T2, mitochondrial FOF1 ATPase (complex V) (Rattus norvegicus, UniProt P10719+P15999).
T2 construct: These particles are obtained from isolated mitochondria from Wistar rats' liver; from tissue; host or cells: submitochondrial particles from Wistar rat liver mitochondria (sonicated)
Briefly: ATP hydrolysis by FOF1 ATPase in submitochondrial particles. In kind it is biochemical, Wistar rats.
Text: These particles are obtained from isolated mitochondria from Wistar rats' liver, submitted to an ultrasound process to break their membranes. Thus, so-called mitoplasts or submitchondrial particles are formed with inverted portions of the inner membrane that preserve the ATP hydrolytic activity of the FOF1 ATPase in the presence of external ATP.

Turning to “4-(2′-Nitrophenyl)-3-Carbonylalcohoxi-2-Methyl-1, 4-Dihydropyrido (2,3-b-5,6-e)-1,4-Benzodiazepine [JM-20]”, in assay [1], the “cytoprotective effect at concentrations lower than that of Nifedipine and Diazepam independently” value was determined as 100 times. Further, in assay [2], the “MIC: concentration at which total inhibition of mitochondrial permeability transition took place” value amounted to 15 µM. Moreover, the “maximum inhibitory level for loss of mitochondrial membrane potential” value in assay [3] turned out to be 15 µM. For the same compound, in assay [4] (10 μM, isolated mitochondria 0.5 mg/ml, 20 μM Ca2+), the “inhibition of calcium mitochondrial uptake” value is listed as “significantly inhibits”. Besides, in assay [4] (FIG. 25), the “inhibition of the mitochondrial calcium transmitter compared with Nifedipine” value was “more powerful in inhibiting the transmitter than other dihydropyridines (Nif)”. The IC50 in assay [5] (submitochondrial particles from Wistar rats' liver mitochondria, read-out: mean inhibitory concentration (IC50) of ATP hydrolysis) is 10.2 µM.

As to `CN1C(=O)CN=C(c2ccccc2)c2cc(Cl)ccc21` [Diazepam, reference compound], the “inhibition of calcium captation by the organelle” value in assay [4] (20 μM, isolated mitochondria 0.5 mg/ml, 20 μM Ca2+) is on record as “neither nifedipine (Nif 20 μM_light blue line) nor diazepam (DZP 20 μM), or the combination of both (Nif+DZP 1.0 μM—pink line) succeeded in inhibiting”. Further, the “inhibition of the hydrolytic activity of the mitochondrial enzyme (in words)” value in assay [5] is reported as “Neither Nifedipine: nor Diazepam inhibited”.

As to `N.N.N.N.N.N.N.N.N.N.N.N.N.N.[Cl-].[Cl-].[Cl-].[Cl-].[Cl-].[Cl-].[O-2].[O-2].[Ru+3].[Ru+3].[Ru+4]` [Ruthenium-red, reference compound], the “inhibition of calcium captation by the organelle” value in assay [4] (1 μM, isolated mitochondria 0.5 mg/ml, 20 μM Ca2+) is given as “calcium captation does not occur”.
